# Key:
# [1] = Test Example 2: stability at various pH values in buffers; type: physicochemical; conditions: for Percent remaining: 25 μM, 25° C.
# Method: The stability of compound 2A at various pH values was determined. The present compound was placed in buffers of various pHs at a concentration of 25 μM. After incubation at 25° C. for 0, 3, and 6 hours, the compound was analyzed by HPLC.
# The buffers used at each pH are shown below. • pH2.0: 50 mM HCl-KCl buffer • pH3.0: 50 mM citrate buffer • pH4.0: 50 mM citrate buffer • pH5.0: 50 mM succinate buffer • pH6.5: 50 mM phosphate buffer • pH7.4: 50 mM phosphate buffer
# Conditions for HPLC analysis are as follows: • HPLC conditions • Column: Develosil C30-UG-3, 3 μm, 50×4.6 mm I.D • Column Temperature: constant temperature at approximately 25° C. • Mobile phase: A: 10 mM phosphate buffer (pH4.7) • B: acetonitrile • (min): 90/10(0)→90/10(0.4)→40/60(6)→2/98(8)→90/10(9)→90/10(15) • Flow rate: 1.0 mL/min • Detection: photodiode array detector, detection wavelength 350 nm • Amount injected: 30 μL
# [2] = Test Example 3: solubility in distilled water; type: physicochemical; conditions: distilled water; read-out: Solubility in distilled water
# Source text: The solubility of the water-soluble prodrugs obtained in the Examples (compounds 1A to 8A) in distilled water was compared to the solubility of (9S)-9-ethyl-9-hydroxy-1-pentyl-1H,12H-pyrano[3″,4″:6′,7′]indolizino[1′,2′:6,5]pyrido[4,3,2-de]quinazoline-10,13 (9H,15H)-dione (representative compound in Patent document 2: reference compound 1).
# [3] = Test Example 5: conversion of compound 2A into activated form in monkey sera; type: in vitro ADME; conditions: for compound 2A (measured values, %): Test Example 5, monkey sera, 50 μM, 37° C.
# Method: The percentages of compound 2A produced in Example 2 being converted into an activated form in sera of humans, rats, mice, monkeys, and dogs were determined. The activated form is in a rapid equilibrium between the lactone form and the carboxylate form, which were quantified separately.
# Compound 2A was incubated at 37° C. at a concentration of 50 μM in sera of humans, mice, rats, monkeys, and dogs. Incubation was terminated at a given time (0, 30, 60, 120, and 360 minutes), and the samples were analyzed by HPLC after deproteinization treatments.
# Conditions for the HPLC analysis are as follows: • HPLC conditions • Column: Develosil C30-UG-3, 3 μm, 35×4.6 mm I.D • Column Temperature: constant temperature at approximately 25° C. • Mobile phase: A: 10 mM phosphate buffer (pH4.7) • B: acetonitrile • /B (min): 90/10(0)→90/10(0.4)→40/60(6)→2/98(8)→90/10(9)→90/10(15) • Flow rate: 1.0 mL/min • Detection: photodiode array detector, detection wavelength 350 nm • Amount injected: 30 μL
# Generally, camptothecins in solution are in a rapid equilibrium between a structure in which the carbonyl at position 3 forms a 6-membered cyclic ester with the oxygen at position 2, and its open-ring structure. The lactone form refers to the former condition and the carboxylate form refers to the latter condition.
smiles,measurement,setting,value
"CCCCCN1C=Nc2cccc3nc4c(c1c23)Cn1c-4cc2c(c1=O)COC(=O)[C@@]2(CC)OC(=O)CN(C)C(=O)CN.Cl [Compound 2A, (9S)-9-Ethyl-9-(glycyl-sarcosyloxy)-1-pentyl-1H,12H-pyrano[3″,4″:6′,7′]indolizino[1′,2′:6,5]pyrido[4,3,2-de]quinazoline-10,13(9H,15H)-dione hydrochloride]",Percent remaining,"[1]; pH 2.0, 50 mM HCl-KCl buffer, 0 hr",100%
same,Percent remaining,"[1]; pH 2.0, 50 mM HCl-KCl buffer, 3 hr",101.6%
same,Percent remaining,"[1]; pH 2.0, 50 mM HCl-KCl buffer, 6 hr",101.1%
same,Percent remaining,"[1]; pH 3.0, 50 mM citrate buffer, 0 hr",100%
same,Percent remaining,"[1]; pH 3.0, 50 mM citrate buffer, 3 hr",100.3%
same,Percent remaining,"[1]; pH 3.0, 50 mM citrate buffer, 6 hr",101.1%
same,Percent remaining,"[1]; pH 4.0, 50 mM citrate buffer, 0 hr",100%
same,Percent remaining,"[1]; pH 4.0, 50 mM citrate buffer, 3 hr",98.2%
same,Percent remaining,"[1]; pH 4.0, 50 mM citrate buffer, 6 hr",96.1%
same,Percent remaining,"[1]; pH 5.0, 50 mM succinate buffer, 0 hr",100%
same,Percent remaining,"[1]; pH 5.0, 50 mM succinate buffer, 3 hr",76.6%
same,Percent remaining,"[1]; pH 5.0, 50 mM succinate buffer, 6 hr",58.7%
same,Percent remaining,"[1]; pH 6.5, 50 mM phosphate buffer, 0 hr",100%
same,Percent remaining,"[1]; pH 6.5, 50 mM phosphate buffer, 3 hr",0%
same,Percent remaining,"[1]; pH 6.5, 50 mM phosphate buffer, 6 hr",0%
same,Percent remaining,"[1]; pH 7.4, 50 mM phosphate buffer, 0 hr",100%
same,Percent remaining,"[1]; pH 7.4, 50 mM phosphate buffer, 3 hr",0%
same,Percent remaining,"[1]; pH 7.4, 50 mM phosphate buffer, 6 hr",0%
same,stability (in words),[1]; up to pH3,stable
same,solubility,[2],> 10000 µg/mL
same,"compound 2A (measured values, %)",[3]; incubation 0 minutes,0%
same,"compound 2A (measured values, %)",[3]; incubation 30 minutes,0%
same,"compound 2A (measured values, %)",[3]; incubation 60 minutes,0%
same,"compound 2A (measured values, %)",[3]; incubation 120 minutes,0%
same,"compound 2A (measured values, %)",[3]; incubation 360 minutes,0%
same,conversion to the lactone form (in words),"[3]; monkey sera, Test Example 5",quickly converted to the lactone form
